Experiments:
Hs 605.T = assay: Alamar Blue cell viability assay, Hs 605.T; format: cell-based; conditions: Breast
Experimental: (§1) The effect of Compound I on cell viability was assessed by Alamar Blue assay of metabolic activity in various cancer cell lines.

BJ-hTERT = assay: Alamar Blue cell viability assay, BJ-hTERT; format: cell-based; conditions: Normal
Experimental: as §1

Ramos = assay: Alamar Blue cell viability assay, Ramos; format: cell-based; conditions: Homo sapiens, Lymphoma
Experimental: as §1

MOLT-3 = assay: Alamar Blue cell viability assay, MOLT-3; format: cell-based; conditions: Homo sapiens; MOLT-3, Leukemia
Experimental: as §1

LNCaP = assay: Alamar Blue cell viability assay, LNCaP; format: cell-based; conditions: Homo sapiens, Prostate
Experimental: as §1

A549 = assay: Alamar Blue cell viability assay, A549; format: cell-based; conditions: Homo sapiens; A549, Lung
Experimental: as §1

Saos-2 = assay: Alamar Blue cell viability assay, Saos-2; format: cell-based; conditions: Homo sapiens; Saos-2, Osteosarcoma
Experimental: as §1

NK92mi = assay: Alamar Blue cell viability assay, NK92mi; format: cell-based; conditions: Lymphoma
Experimental: as §1

THP-1 = assay: Alamar Blue cell viability assay, THP-1; format: cell-based; conditions: Homo sapiens; THP-1, Leukemia
Experimental: as §1

MDA-MB-361 = assay: Alamar Blue cell viability assay, MDA-MB-361; format: cell-based; conditions: Homo sapiens; MDA-MB-361, Breast
Experimental: as §1

CCD-1068Sk = assay: Alamar Blue cell viability assay, CCD-1068Sk; format: cell-based; conditions: Normal
Experimental: as §1

NCI-H460 = assay: Alamar Blue cell viability assay, NCI-H460; format: cell-based; conditions: Homo sapiens; NCI-H460, Lung
Experimental: as §1

EOL-1 = assay: Alamar Blue cell viability assay, EOL-1; format: cell-based; conditions: Homo sapiens, EOL1; EOL-1, Leukemia
Experimental: as §1

PC-3 = assay: Alamar Blue cell viability assay, PC-3; format: cell-based; conditions: Homo sapiens; PC-3, Prostate
Experimental: as §1

BT-474 = assay: Alamar Blue cell viability assay, BT-474; format: cell-based; conditions: Homo sapiens; BT-474, Breast
Experimental: as §1

[1] = test system: multiple cancer cell lines; assay: Alamar Blue cell viability assay, multiple cancer cell lines; format: cell-based; conditions: Table 1
Experimental: as §1

normal cells = assay: Alamar Blue cell viability assay, normal cells; format: cell-based; conditions: compared with cancer cell lines
Experimental: as §1

MDA-MB-231 = assay: Alamar Blue cell viability assay, MDA-MB-231; format: cell-based; conditions: Homo sapiens; MDA-MB-231, Breast
Experimental: as §1

solid malignancy = assay: Dose escalation study in patients, best response / tumor shrinkage; format: in vivo, human
Experimental: Pharmacokinetic studies and dose escalation studies were conducted in adult patients with metastatic, recurrent, locally, advanced, or unresectable solid malignancy (patients with histologically and/or cytologically confirmed solid malignancy), who received prior anti-cancer treatment(s) until disease progression, at 10 different dose levels of Compound I. Groups 1-7 were administered intravenously on days 1 and 8 of a 4-week cycle at 50, 100, 150, 200, 250, 325, and 475 mg/m^2 (lyophilized formulation), respectively. Groups 8-10 were administered intravenously on days 1,8, and 15 of a 4-week cycle at 325, 475, and 650 mg/m^2 (lyophilized formulation), respectively. Each patient received each dose over 1 hour by IV infusion on days described above.
The duration on therapy at each dose level for evaluable patients is depicted in FIG. 8.
In the study described in Example 3, 18 patients were diagnosed with metastatic breast cancer. […] This study was conducted to evaluate predictive biomarkers of response to Compound I and to explore the relationship between germline HRD aberrations and outcomes of Compound I treatments.
In the study described in Example 3, 12 patients harbored BRCA1 or BRCA2 mutation. From the same group of 12 patients harboring BRCA1 or BRCA2 mutation, 8 patients had breast cancer (FIG. 5). Of the 8 patients, 6 patient harbored BRCA2 mutation and had breast cancer (FIG. 6). In FIGS. 4-6, each bar represents an individual in a treatment Group as indicated by the Group number corresponding to the treatment Groups in Example 3.

NCI-H520 = assay: Alamar Blue cell viability assay, NCI-H520; format: cell-based; conditions: Homo sapiens; NCI-H520, Lung
Experimental: as §1

Jurkat = assay: Alamar Blue cell viability assay, Jurkat; format: cell-based; conditions: Homo sapiens, Leukemia
Experimental: as §1

SR = assay: Alamar Blue cell viability assay, SR; format: cell-based; conditions: Homo sapiens, Leukemia
Experimental: as §1

COLO-205 = assay: Alamar Blue cell viability assay, COLO-205; format: cell-based; conditions: Homo sapiens; COLO-205, Colon
Experimental: as §1

BRCA12 deficient cells = assay: Toxicity against BRCA12 deficient cells; format: cell-based; conditions: cell lines of different genetic backgrounds (colon, breast and ovary), mouse and human
MIA PaCa-2 = assay: Alamar Blue cell viability assay, MIA PaCa-2; format: cell-based; conditions: Homo sapiens; MIA PaCa-2, Pancreatic
Experimental: as §1

NCI-H1299 = assay: Alamar Blue cell viability assay, NCI-H1299; format: cell-based; conditions: Homo sapiens; NCI-H1299, Lung
Experimental: as §1

PANC-1 = assay: Alamar Blue cell viability assay, PANC-1; format: cell-based; conditions: Homo sapiens; PANC-1, Pancreatic
Experimental: as §1

SEM cells = assay: Alamar Blue cell viability assay, SEM; format: cell-based; conditions: Leukemia
Experimental: as §1

A375 = assay: Alamar Blue cell viability assay, A375; format: cell-based; conditions: Homo sapiens, A-375; A375, Melanoma
Experimental: as §1

[2] = of the 40 patients treated, 34 discontinued

Cc1cnc(CNC(=O)c2c(=O)c3ccc(N4CCCN(C)CC4)nc3n3c2sc2ccccc23)cn1 [Compound I, 2-(4-Methyl-[1,4]diazepan-1-yl)-5-oxo-5H-7-thia-1,11b-diaza-benzo[c]fluorene-6-carboxylic acid (5-methyl-pyrazin-2-ylmethyl)-amide]
EC50 (Hs 605.T): 116 nM
EC50 (BJ-hTERT): 5.17 µM
EC50 (Ramos): 66 nM
EC50 (MOLT-3): 6 nM
EC50 (LNCaP): 5.5 µM
EC50 (A549): 4.9 µM
EC50 (Saos-2): 5 µM
EC50 (NK92mi): 165 nM
EC50 (THP-1): 47 nM
EC50 (MDA-MB-361): 2100 nM
EC50 (CCD-1068Sk): 5.07 µM
EC50 (NCI-H460): 38 nM
EC50 (EOL-1): 3 nM
EC50 (PC-3): 1100 nM
EC50 (BT-474): 86 nM
Antiproliferative activity [1]: broad spectrum antiproliferative activity
Activity in normal cells (normal cells): significantly less active
EC50 (MDA-MB-231): 83 nM
Response of a patient who harbored a PALB2 mutation (solid malignancy; Group 10, 650 mg/m^2, CT scans, 6-month follow-up): partial response (PR)
Patients discontinued due to objective progressive disease (solid malignancy; [2]): 29
Patients discontinued due to symptomatic progression of disease (solid malignancy; [2]): 4
Patients with stable disease as best response for >4 cycles (solid malignancy; of the 40 patients treated, 2 with breast cancer, 4 germline BRCA2, 2 somatic BRCA1/2): 6 patients
Patients with confirmed partial response as best response (solid malignancy; of the 40 patients treated, 3 with breast cancer, 2 germline BRCA2, 1 germline BRCA2 VUS, germline PALB2): 4 patients
Outcome in 8 patients who had received prior PARP inhibitor therapy (solid malignancy; only 2 of them had BRCA2 mutations): all had early progression after ≤2 cycles
Dose at which patients with BRCA2 mutation responded, tumor shrinkage observed (solid malignancy; patients with BRCA2 mutation): greater than or equal to 150 mg/m^2
EC50 (NCI-H520): 70 nM
EC50 (Jurkat): 64 nM
EC50 (SR): 5 nM
EC50 (COLO-205): 96 nM
Toxicity against BRCA12 deficient cells (BRCA12 deficient cells): specific toxicity
EC50 (MIA PaCa-2): 74 nM
EC50 (NCI-H1299): 55 nM
EC50 (PANC-1): 5 µM
EC50 (SEM cells): 18 nM
EC50 (A375): 58 nM
